Columns and labels:
AMPKα = assay: Measurement of AMPK activation effect (AMPKα Thr172 phosphorylation immunoassay) in MCF7 cells; type: cell-based, human; details: 24 hours; for AMPK activation effect at 10 μM (%) / AMPK activation effect at 50 μM (%): relative to untreated cells; for AMPK activation effect AC150: concentration at which AMPK activation reached 150%
In short: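 MCF7 cells in DMEM/10% FBS were treated 24 h with derivatives at 5, 10 and 50 μM (metformin hydrochloride control, 0.05–10 mM). AMPKα Thr172 phosphorylation was measured by immunoassay on 20 μg lysate. AC150 (concentration giving 150% activation) came from concentration–response curves, with activation also reported at fixed concentrations.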

HCT116 cells = assay: Measurement of effect of inhibiting cancer cell proliferation (MTT); type: cell-based, human; details: for inhibition at 100 µM: HCT-116, 100 μM, read-out: Cell Growth Inhibition (%) at 100 μM
In short: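 HCT116 cells (~5,000/well, DMEM with 10% FBS) treated 48 h with compound at 0.39–100 μM, metformin hydrochloride control at 0.1–25 mM. Viability by MTT (3 h, formazan in DMSO, A560) relative to untreated wells; GIC50 from the viability curve, also viability at 100 μM.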

[1] = Solubility in water of hydrochloride and acetate salts; type: physicochemical; details: room temperature
Experimental: The solubilities in water of the hydrochlorides prepared in Examples 26, 27, 32, 33, 48, 49, 53 and 54, and the solubilities in water of the acetates prepared in Examples 70 to 77, were compared.
The experimental conditions and methods are described, as follows.
1) 1 ml of distilled water is added to a container including 5 mg of salt at room temperature.
2) The resulting mixture is stirred for 10 minutes, and then kept at room temperature for 1 hour.
3) Undissolved residual salt is recovered and weighed.
4) The ratio of the amount of the recovered salt and the amount of the dissolved salt is calculated.
5) Operations 1) to 4) are repeatedly performed with increasing amount (i.e., 10, 15, 20, 25 and 30 mg) of salt.
The experimental procedures were performed for each of the hydrochlorides of Examples 26, 27, 32, 33, 48, 49, 53 and 54 and the acetates of Examples 70 to 77. The comparative solubilities obtained using the hydrochlorides of Examples 26, 27, 32, 33, 48, 49, 53 and 54 and the acetates of Examples 70 to 77 are listed in the following Table 1.

[2] = content 5 mg/1 ml distilled water
[3] = content 10 mg/1 ml distilled water
[4] = content 15 mg/1 ml distilled water
[5] = content 20 mg/1 ml distilled water
[6] = content 25 mg/1 ml distilled water
[7] = content 30 mg/1 ml distilled water

GI50 (HCT116 cells; Homo sapiens, HCT-116, 48 h) | Solubility in water (%), hydrochloride salt [1, 2] | melting point | GI50 (HCT116 cells; 48 hours) | Solubility in water (%), acetate salt [1, 2] | Solubility in water (%), acetate salt [1, 3] | Solubility in water (%), acetate salt [1, 4] | Solubility in water (%), acetate salt [1, 5] | Solubility in water (%), acetate salt [1, 6] | Solubility in water (%), acetate salt [1, 7] | Structure (SMILES) | AMPK activation effect at 10 μM (%) (AMPKα) | AMPK activation effect at 50 μM (%) (AMPKα) | AMPK activation effect AC150 (AMPKα) | inhibition at 100 µM (HCT116 cells; Homo sapiens, 48 hours)
23.6 µM | 50% | – | – | – | – | – | – | – | – | Cl.N=C(NC(=N)N1CCCC1)Nc1ccc(OC(F)(F)F)cc1 [Example 32, N1-pyrrolidine-N5-(4-trifluoromethoxy)phenyl biguanide hydrochloride] | 204% | 680% | 5.1 µM | 97.6%
7.9 µM | 50% | 277.3 °C | – | – | – | – | – | – | – | Cl.N=C(NC(=N)N1CCCCC1)Nc1ccc(OC(F)(F)F)cc1 [Example 33, N1-piperidine-N5-(4-trifluoromethoxy)phenyl biguanide hydrochloride] | 538% | – | 1.4 µM | 97.9%
9.3 µM | 80% | 253 to 254 °C | – | – | – | – | – | – | – | Cl.N=C(NC(=N)N1CCCC1)Nc1ccc(C(F)(F)F)c(F)c1 [Example 48, N1-pyrrolidine-N5-(3-fluoro-4-trifluoromethyl)phenyl biguanide hydrochloride] | 299% | – | 2.5 µM | 101%
5.2 µM | 20% | 263 to 264 °C | – | – | – | – | – | – | – | Cl.N=C(NC(=N)N1CCCCC1)Nc1ccc(C(F)(F)F)c(F)c1 [Example 49, N1-piperidine-N5-(3-fluoro-4-trifluoromethyl)phenyl biguanide hydrochloride] | 258% | – | 2.7 µM | 96.5%
7.6 µM | 20% | 278 to 279 °C | – | – | – | – | – | – | – | Cl.N=C(NC(=N)N1CCCC1)Nc1ccc(OC(F)(F)F)c(F)c1 [Example 53, N1-pyrrolidine-N5-(3-fluoro-4-trifluoromethoxy)phenyl biguanide hydrochloride] | 315% | – | 5.0 µM | 101%
4.5 µM | 20% | 262 to 263 °C | – | – | – | – | – | – | – | Cl.N=C(NC(=N)N1CCCCC1)Nc1ccc(OC(F)(F)F)c(F)c1 [Example 54, N1-piperidine-N5-(3-fluoro-4-trifluoromethoxy)phenyl biguanide hydrochloride] | 400% | – | 0.5 µM | 96.4%
8.7 µM | – | 282 to 283 °C | – | – | – | – | – | – | – | Cl.N=C(NC(=N)N1CCCC1)Nc1ccc(Cl)c(Cl)c1 [Example 63, N1-pyrrolidine-N5-(3,4-dichloro)phenyl biguanide hydrochloride] | 261% | – | 6.2 µM | 97.6%
6.4 µM | – | 267 to 269 °C | – | – | – | – | – | – | – | Cl.N=C(NC(=N)N1CCCCC1)Nc1ccc(Cl)c(Cl)c1 [Example 64, N1-piperidine-N5-(3,4-dichloro)phenyl biguanide hydrochloride] | 442% | – | 0.7 µM | 101%
3.6 µM | – | 208 to 209 °C | – | – | – | – | – | – | – | Cl.N=C(NC(=N)N1CCCCC1)Nc1cc(Cl)cc(OC(F)(F)F)c1 [Example 65, N1-piperidine-N5-(3-chloro-5-trifluoromethoxy)phenyl biguanide hydrochloride] | – | – | 5.0 µM | 97.3%
6.8 µM | – | 241 to 242 °C | – | – | – | – | – | – | – | Cl.N=C(NC(=N)N1CCCC1)Nc1cc(Br)cc(OC(F)(F)F)c1 [Example 66, N1-pyrrolidine-N5-(3-bromo-5-trifluoromethoxy)phenyl biguanide hydrochloride] | 521% | – | 5.0 µM | 97.6%
2.9 µM | – | 205 to 207 °C | – | – | – | – | – | – | – | Cl.N=C(NC(=N)N1CCCCC1)Nc1cc(Br)cc(OC(F)(F)F)c1 [Example 67, N1-piperidine-N5-(3-bromo-5-trifluoromethoxy)phenyl biguanide hydrochloride] | – | – | 5.0 µM | 97.1%
13.8 µM | – | 248 to 249 °C | – | – | – | – | – | – | – | Cl.N=C(NC(=N)N1CCCCC1)Nc1cc(F)c(F)c(F)c1 [Example 68, N1-piperidine-N5-(3,4,5-trifluoro)phenyl biguanide hydrochloride] | 197% | – | 7.2 µM | 97.6%
> 100 µM | – | 243 to 244 °C | – | – | – | – | – | – | – | Cl.N=C(NC(=N)N1CCCCC1)Nc1c(F)cc(F)cc1F [Example 69, N1-piperidine-N5-(2,4,6-trifluoro)phenyl biguanide hydrochloride] | 131% | 156% | 42.0 µM | 21.5%
– | – | – | 5.2 µM | 100% | 100% | 100% | 100% | 100% | 50% | N=C(NC(=N)N1CCCC1)Nc1ccc(C(F)(F)F)cc1 [Example 70, N1-pyrrolidine-N5-(4-trifluoromethyl)phenyl biguanide acetate] | 554% | – | 2.0 µM | –
– | – | – | – | 100% | 50% | – | – | – | – | N=C(NC(=N)N1CCCCC1)Nc1ccc(C(F)(F)F)cc1 [Example 71, N1-piperidine-N5-(4-trifluoromethyl)phenyl biguanide acetate] | 313% | – | 2.3 µM | –
– | – | – | – | 100% | 100% | 100% | 100% | 100% | 50% | N=C(NC(=N)N1CCCC1)Nc1ccc(OC(F)(F)F)cc1 [Example 72, N1-pyrrolidine-N5-(4-trifluoromethoxy)phenyl biguanide acetate] | 186% | 938% | 4.6 µM | –
– | – | – | – | 100% | 100% | 100% | 20% | – | – | N=C(NC(=N)N1CCCCC1)Nc1ccc(OC(F)(F)F)cc1 [Example 73, N1-piperidine-N5-(4-trifluoromethoxy)phenyl biguanide acetate] | 270% | 747% | 0.3 µM | –
– | – | – | – | 100% | 100% | 100% | 50% | – | – | N=C(NC(=N)N1CCCC1)Nc1ccc(C(F)(F)F)c(F)c1 [Example 74, N1-pyrrolidine-N5-(3-fluoro-4-trifluoromethyl)phenyl biguanide acetate] | 461% | – | 3.4 µM | –
– | – | – | – | 70% | – | – | – | – | – | N=C(NC(=N)N1CCCCC1)Nc1ccc(C(F)(F)F)c(F)c1 [Example 75, N1-piperidine-N5-(3-fluoro-4-trifluoromethyl)phenyl biguanide acetate] | 710% | – | 2.0 µM | –
– | – | – | – | 100% | 100% | 70% | – | – | – | N=C(NC(=N)N1CCCC1)Nc1ccc(OC(F)(F)F)c(F)c1 [Example 76, N1-pyrrolidine-N5-(3-fluoro-4-trifluoromethoxy)phenyl biguanide acetate] | 341% | – | 1.3 µM | –
– | – | – | – | 100% | 50% | – | – | – | – | N=C(NC(=N)N1CCCCC1)Nc1ccc(OC(F)(F)F)c(F)c1 [Example 77, N1-piperidine-N5-(3-fluoro-4-trifluoromethoxy)phenyl biguanide acetate] | – | – | – | –

From US9540325B2, “N1-cyclic amine-N5-substituted phenyl biguanide derivatives, methods of preparing the same and pharmaceutical composition comprising the same” (Immunomet Therapeutics, Inc., priority 2011, dated 2017)
